Results reported in patent US20070293666A1, “Optical Filter and Its Applications, and Porphyrin Compound Used in Optical Filter” (Mitsui Chemicals, Inc., priority 2004, published 2007).

Tests used:
Format in all cases: physicochemical
[1] = Absorption spectrum in chloroform (maximum absorption wavelength, gram absorption coefficient, 550/525 nm coefficient ratio); conditions: for εg (gram absorption coefficient) / λmax: chloroform solution; for Ratio of Absorption Coefficient at 525 nm and 550 nm: coefficient at 550 nm to coefficient at 525 nm
Method: (§1) Compounds represented by the compound Nos. 1-1, 1-2, 1-3, 1-4 and 1-7 (Table 1-1) were synthesized in the same manner as in Examples 1-1 and 1-2. With respect to compounds synthesized in Example 1-2 and Synthesis Example 1-1 along with these compounds, the maximum absorption wavelength (λmax), the gram absorption coefficient (εg) and solubility were measured.
(§2) λmax and εg are values in the chloroform solution, while the solubility is weight % based on acetone.
With respect to the compounds represented by the compound Nos. 1-2, 1-3, 1-6 and 1-7 synthesized in Examples 1-2 and 1-3 (corresponding to compounds (3-B), (3-C), (3-E) and (3-F) respectively) along with the obtained compound (3-A), the maximum absorption wavelength and the ratio of the absorption coefficient at a wavelength of 550 nm to the absorption coefficient at a wavelength of 525 nm, which were measured in a chloroform solvent, are shown in Table 3-1. [drawing 26] [drawing 27] [drawing 28] [drawing 29]

Solubility in acetone = assay: Solubility in acetone; set-up: key: ∘: completely dissolved; x: not completely dissolved; conditions: for Solubility 0.1%: 0.1 weight % based on acetone; for Solubility 0.2%: 0.2 weight % based on acetone; for Solubility 1.0%: 1.0 weight % based on acetone
Method: as §1, §2

[2] = Light resistance test / artificial sunlight irradiation test of optical filter; conditions: visible light 380 to 780 nm; for Absorption Retention after Light resistance test for 250 hours: 50 mW/cm^2, 250 hours, 30±10° C., humidity 50±20%
Method: To evaluate light resistance of the dye, a sample prepared in the same method as in evaluation of heat resistance is used. The absorption retention rate represented by the above equation (1) is measured in the same manner as in heat resistance. However, in this case, the obtained sample is not kept under the environment of 80° C., but the above visible light ray is irradiated on a side of the ultraviolet blocking film of the sample in a room at a temperature of 30±10° C., a humidity of 50±20% for a predetermined time. Tmax,1 represents light transmittance in a maximum absorption wavelength after the above visible light ray is irradiated for a predetermined time. When there are a plurality of absorption maxima, Tmax,0 is light transmittance at a maximum absorption wavelength showing the highest absorption coefficient. Tmax,1 represents light transmittance at the same wavelength as that in Tmax,0 or at a maximum absorption wavelength nearest to the wavelength in Tmax,0.
With respect to the optical filters obtained from the compounds (3-A) to (3-F), environmental accelerated tests were carried out by artificial sunlight irradiation using a solar simulator (manufactured by Ushio Inc.). A visible light ray in a wavelength of from 380 to 780 nm was irradiated on the ultraviolet blocking film of the prepared optical filter at 50 mW/cm^2 for 250 hours in a room at a temperature of 30±10° C. and a humidity of 50±20%. At this time, an absorption retention rate represented by the above equation (1) was obtained.
(§3) With respect to the optical filters obtained from the compounds (3-A) and (3-B), environmental accelerated tests of high temperature, high-temperature/high-humidity and artificial sunlight irradiation were carried out. In the test, a constant temperature chamber at 80° C. (DN-61, manufactured by Yamato Scientific Co., Ltd.), a constant temperature and humidity chamber at 60° C. and 90% RH (Product name, FX2200, manufactured by Kusumoto Chemicals, Ltd.) and a solar simulator (manufactured by Ushio Inc.) were respectively used. A visible light ray in a wavelength of from 380 to 780 nm was irradiated on a surface of the ultraviolet blocking film of the above optical filter at 50 mW/cm^2 for a predetermined time in a room at a temperature of 30±10° C. and a humidity of 50±20%.
(§4) The above optical filters were kept under each environmental condition for 500 hours and 1000 hours, and light transmittance of the optical filter was measured by using the spectrophotometer after 500 hours and 1000 hours. An absorption retention rate in a maximum absorption wavelength after each environmental accelerated test was obtained from the above equation (2).

[3] = Light transmittance of optical filter (dye-containing acrylic adhesive sheet, 1000 ppm dye); conditions: dye 1000 (wt)ppm in acrylic adhesive, 25 μm
Method: When the compound (3-A) was dispersed and dissolved in a solvent of ethyl acetate and toluene (weight ratio 50:50) and dried, a dye-containing diluting agent for an acrylic adhesive was prepared such that the dye concentration in the resin was 1000 (wt)ppm. Subsequently, the acrylic adhesive (a copolymer of butyl acrylate and acrylic acid (Product name: DBBOND, manufactured by Diabond Industry Co., Ltd.)) and a dye-containing diluting agent were mixed (weight ratio 80:20), and continuously applied on a mold releasing layer of a mold releasing film comprising a polyethylene terephthalate film and a silicone mold releasing layer according to a bar coating method, and the resulting material was dried. Then, the other mold releasing film was attached to the coating surface to prepare a dye-containing adhesive sheet having a thickness of 25 μm with mold releasing films having different mold releasing forces at both sides.
The mold releasing film on one side of the prepared adhesive sheet was peeled away and the resulting sheet was attached to a transparent acrylic resin (manufactured by Mitsubishi Rayon Co., Ltd., Acrylite, thickness: 2 mm), while the mold releasing film on the other side thereof was further peeled away and an ultraviolet blocking film (manufactured by Teijin Co., Ltd., HB Film, thickness: 75 μm) was attached to prepare an optical filter.
With respect to the obtained optical filter, the light transmittance in a wavelength of from 300 to 800 nm was measured by using a spectrophotometer (Product name: U-3400, manufactured by Hitachi, Ltd.) in accordance with JIS R3106. A percentage of light transmittance at a wavelength of 550 nm to light transmittance at a wavelength of 525 nm was obtained.

[4] = High temperature/high humidity test of optical filter; conditions: 60° C. and 90% RH
Method: as §3, §4

[5] = High temperature test of optical filter; conditions: 80° C.
Method: A dye-containing diluting agent was prepared such that the dye concentration in the resin was 1000 (wt)ppm when the dye was dispersed and dissolved in a solvent and dried. Subsequently, an acrylic adhesive (a copolymer of butyl acrylate and acrylic acid (Product name: DBBOND, manufactured by Diabond Industry Co., Ltd.) and the dye-containing diluting agent are mixed (weight ratio 80:20), and continuously applied on a mold releasing layer of a mold releasing film comprising a polyethylene terephthalate film and a silicone mold releasing layer according to the bar coating method, and the resulting material was dried. Due to this, an acrylic adhesive containing the dye having a film thickness of 25 μm was prepared. The prepared adhesive was attached to a transparent acrylic resin (manufactured by Mitsubishi Rayon Co., Ltd., Acrylite, thickness: 2 mm), and the mold releasing film of the adhesive was peeled away and an ultraviolet blocking film (manufactured by Teijin Co., Ltd., HB Film, thickness: 75 μm) was attached to give the sample for evaluation. […]
The above optical filters were kept under each environmental condition for 500 hours and 1000 hours, and light transmittance of the optical filter was measured by using the spectrophotometer after 500 hours and 1000 hours. […]

Compound	εg (gram absorption coefficient) [1]	λmax [1] [nm]	Solubility 0.1% (Solubility in acetone)	Solubility 0.2% (Solubility in acetone)	Solubility 1.0% (Solubility in acetone)	Maximum Absorption Wavelength ([1]; chloroform solvent) [nm]	Ratio of Absorption Coefficient at 525 nm and 550 nm ([1]; chloroform solvent)	Absorption Retention after Light resistance test for 250 hours [2] [%]	Light Transmittance at 525 nm [3] [%]	Light Transmittance at 550 nm [3] [%]	T@550/T@525 Light Transmittance Ratio [3] [%]	Absorption retention rate, High temperature/High humidity test, after 500 hours ([4]; 500 hours) [%]	Absorption retention rate, High temperature/High humidity test, After 1000 hours ([4]; 1000 hours) [%]	Absorption retention rate, High temperature test, after 500 hours ([5]; 500 hours) [%]	Absorption retention rate, High temperature test, After 1000 hours ([5]; 1000 hours) [%]	Absorption retention rate, Artificial sunlight irradiation test, after 500 hours ([2]; 50 mW/cm^2, 500 hours) [%]	Absorption retention rate, Artificial sunlight irradiation test, After 1000 hours ([2]; 50 mW/cm^2, 1000 hours) [%]	Maximum Absorption Wavelength ([1]; in chloroform) [nm]	gram absorption coefficient ([1]; in chloroform)
CCCCOc1ccc(C2=c3nc(c4c5cccc6cccc(c3=4)c65)C(c3ccc(OCCCC)cc3)=c3c4c(c5[n]3[Cu][n]3c2c2c(c3C(c3ccc(OCCCC)cc3)=c3nc(c6c7cccc8cccc(c3=6)c87)C=5c3ccc(OCCCC)cc3)-c3cccc5cccc-2c35)-c2cccc3cccc-4c23)cc1 [1-1]	162,000	553	∘	∘	x	–	–	–	–	–	–	–	–	–	–	–	–	–	–
CCCCCCCCCCOc1ccc(C2=c3nc(c4c5ccc(Cl)c6c(Cl)ccc(c3=4)c65)C(c3ccc(OCCCCCCCCCC)cc3)=c3c4c(c5[n]3[Ni][n]3c2c2c(c3C(c3ccc(OCCCCCCCCCC)cc3)=c3nc(c6c7ccc(Cl)c8c(Cl)ccc(c3=6)c87)C=5c3ccc(OCCCCCCCCCC)cc3)-c3ccc(Cl)c5c(Cl)ccc-2c35)-c2ccc(Cl)c3c(Cl)ccc-4c23)cc1 [1-7]	122,000	552	∘	∘	∘	552	1.4	94	72.0	66.6	93	–	–	–	–	–	–	–	–
CC(C)(C)c1ccc(C2=c3nc(c4c5cccc6cccc(c3=4)c65)C(c3ccc(C(C)(C)C)cc3)=c3c4c(c5[n]3[Cu][n]3c2c2c(c3C(c3ccc(C(C)(C)C)cc3)=c3nc(c6c7cccc8cccc(c3=6)c87)C=5c3ccc(C(C)(C)C)cc3)-c3cccc5cccc-2c35)-c2cccc3cccc-4c23)cc1 [3-D]	–	–	–	–	–	546	2.2	92	59.7	38.1	64	–	–	–	–	–	–	–	–
CCCCCOc1ccc(C2=c3nc(c4c5cccc6cccc(c3=4)c65)C(c3ccc(OCCCCC)cc3)=c3c4c(c5[n]3[Cu][n]3c2c2c(c3C(c3ccc(OCCCCC)cc3)=c3nc(c6c7cccc8cccc(c3=6)c87)C=5c3ccc(OCCCCC)cc3)-c3cccc5cccc-2c35)-c2cccc3cccc-4c23)cc1 [1-2]	154,000	553	∘	∘	∘	553	2.5	95	62.6	37.2	59	91	90	100	100	95	93	–	–
CCCCCCOc1ccc(C2=c3nc(c4c5cccc6cccc(c3=4)c65)C(c3ccc(OCCCCCC)cc3)=c3c4c(c5[n]3[Cu][n]3c2c2c(c3C(c3ccc(OCCCCCC)cc3)=c3nc(c6c7cccc8cccc(c3=6)c87)C=5c3ccc(OCCCCCC)cc3)-c3cccc5cccc-2c35)-c2cccc3cccc-4c23)cc1 [1-3]	122,000	553	∘	∘	∘	553	2.3	80	69.1	49.8	72	–	–	–	–	–	–	–	–
CCCCCCCCCCOc1ccc(-c2c3nc(c(-c4ccc(OCCCCCCCCCC)cc4)c4[nH]c(c(-c5ccc(OCCCCCCCCCC)cc5)c5nc(c(-c6ccc(OCCCCCCCCCC)cc6)c6[nH]c2c2c7cccc8cccc(c87)c62)c2c6cccc7cccc(c76)c52)c2c5cccc6cccc(c65)c42)c2c4cccc5cccc(c54)c32)cc1 [1-A]	–	–	–	–	–	–	–	–	–	–	–	–	–	–	–	–	–	567	113,000
CCCCCCCCCCOc1ccc(C2=c3nc(c4c5cccc6cccc(c3=4)c65)C(c3ccc(OCCCCCCCCCC)cc3)=c3c4c(c5[n]3[Ni][n]3c2c2c(c3C(c3ccc(OCCCCCCCCCC)cc3)=c3nc(c6c7cccc8cccc(c3=6)c87)C=5c3ccc(OCCCCCCCCCC)cc3)-c3cccc5cccc-2c35)-c2cccc3cccc-4c23)cc1 [1-6]	135,000	536	∘	∘	∘	536	1.2	97	61.7	57.5	93	–	–	–	–	–	–	536	135,000
c1coc(-c2c3nc(c(-c4ccco4)c4[nH]c(c(-c5ccco5)c5nc(c(-c6ccco6)c6[nH]c2c2c7cccc8cccc(c87)c62)c2c6cccc7cccc(c76)c52)c2c5cccc6cccc(c65)c42)c2c4cccc5cccc(c54)c32)c1 [2-A]	–	–	–	–	–	–	–	–	–	–	–	–	–	–	–	–	–	563	110,000
